From publication PMC12389534, “Unlocking Therapeutic Potential of Novel Thieno-Oxazepine Hybrids as Multi-Target Inhibitors of AChE/BChE and Evaluation Against Alzheimer’s Disease: In Vivo, In Vitro, Histopathological, and Docking Studies” (Pharmaceuticals, 2025)

Columns and labels:
[1] = test system: AlCl3-induced AD rat model; assay: Morris water maze (MWM) test in AlCl3-induced AD rats; type: in vivo; details: mean ± SE, n = 6
Experimental: (§1) All procedures were conducted conforming to the applicable National Institutes of Health standards and regulations for the Care and Use of Laboratory Animals. In this experiment, adult male Dawley rats in excellent condition weighing between 300 and 320 g were used. The animals were acquired from the Nile Company for Pharmaceuticals and Chemical Industries (Cairo, Egypt). They were placed in a controlled laboratory setting with unrestricted access to water, a temperature range of 24 to 26 °C, and 12 h a light–dark cycle. Three rats per cage were housed in polycarbonate cages that were individually packed with paper and encased with stainless steel wire.
Spatial learning and memory were inspected using the MWM test. Tap water was poured into a 150 cm diameter by 60 cm high circular water tank until it reached a depth of 30 cm (25 ± 2 °C). To make the water […], non-toxic white dye was applied. The east, west, north, and south quadrants of the pool were essentially separated into four equal sections. At a specific spot in the middle of one quadrant, an escape platform with a diameter of 10 cm was submerged 2 cm below the water’s surface. The platform stood in the exact same quadrant throughout the testing. The rats’ swimming route was recorded by a video camera situated above the pool. From a designated spot in each quadrant, each rat was submerged in the water with its back turned to the pool wall, and it was then left to swim to the platform. The rats received training sessions every day for three days in a row, with four trials conducted in each session. Before the next trial began, the animals were kept a maximum of 60 s to explore the hidden platform. After that, they were permitted to relax on it for 20 s. The rat was positioned gently on the platform and allowed 20 s to rest if it took longer than 60 s to locate it. The time taken to find the platform, or the escape latency, was documented. In order to do a probing test on the fourth day, the platform was detached away, and the rats were given 60 s to swim liberally. The time spent in the assigned quadrant was counted.

[2] = test system: AlCl3-induced AD rat model; assay: Y-maze SAP test in AlCl3-induced AD rats; type: in vivo; details: mean ± SE, n = 6
Experimental: as §1
One kind of short-term memory that SAP can represent is spatial working memory. Three arms, designated A, B, or C, were employed in a black hardwood Y-maze with a symmetrical triangular core space. Rats were briefly positioned at the edge of one arm and given 8 min to freely navigate around the maze. When the rat’s rear paws were fully inside the arm, the entries were counted. The following formula was used to determine SAP based on the total number of arm entries and alternations: SAP (%) = [number of alternations/(total arm entries − 2)] × 100 [94].

## COc1cc2c(cc1OC)C(=O)C(CC1CCN(Cc3ccccc3)CC1)C2 (stereo not drawn) [Donepezil, reference compound]
[1]; escape latency
  Learning (s): 14.78 ± 0.83 ^ab s
[1]; time spent in target quadrant
  Memory (s): 42.67 ± 0.61 ^ab s
[2]
  SAP%: 85 ± 0.58 ^ab %
